# Measurements published in patent US8680272B2, “3-arylethynyl substituted quinazolinone compounds” (Council of Scientific & Industrial Research, priority 2011, dated 2014).
# Tests used:
# [1] = system: HL-60(TB); assay: Anticancer activity, SRB assay, leukemia cell line HL-60(TB); format: cell-based; conditions: Homo sapiens; Leukemia HL-60(TB); 48 h continuous drug exposure; read-out: Growth Inhibition GI50
# Procedure: (§1) Some of biological activity studies were carried out at the National Cancer Institute (NCI), Maryland, USA.
# (§2) The compounds were evaluated for anticancer activity against sixty human cancer cells derived from nine cancer types (leukemia cell line, non-small-cell lung cell line, colon cell line, CNS cell line, melanoma cell line, ovarian cell line, prostate cell line, renal cell line and breast cancer cell line) as shown in Table 1. For each compound, dose response curves for each cell line were measured at a minimum of five concentrations at 10 fold dilutions. A protocol of 48 h continuous drug exposure was used and a sulforhodamine B (SRB) protein assay was used to estimate cell viability or growth.
# [2] = system: HOP-92; assay: Anticancer activity, SRB assay, non-small lung cell line HOP-92; format: cell-based, human; conditions: Homo sapiens; Non-small lung HOP-92; 48 h continuous drug exposure; —^b means GI50 values not attained at the concentrations used; read-out: Growth Inhibition GI50
# Procedure: as §1, §2
# [3] = system: NCI-H226; assay: Anticancer activity, SRB assay, non-small lung cell line NCI-H226; format: cell-based, human; conditions: Homo sapiens, NCI-H226; Non-small lung NCl-H226; 48 h continuous drug exposure; —^b means GI50 values not attained at the concentrations used; read-out: Growth Inhibition GI50
# Procedure: as §1, §2
# [4] = system: HCC-2998; assay: Anticancer activity, SRB assay, colon cell line HCC-2998; format: cell-based, human; conditions: Homo sapiens; Colon HCC-2998; 48 h continuous drug exposure; —^b means GI50 values not attained at the concentrations used; read-out: Growth Inhibition GI50
# Procedure: as §1, §2
# [5] = system: HCT-116; assay: Anticancer activity, SRB assay, colon cell line HCT-116; format: cell-based; conditions: Homo sapiens; Colon HCT-116; 48 h continuous drug exposure; read-out: Growth Inhibition GI50
# Procedure: as §1, §2
# [6] = system: KM12; assay: Anticancer activity, SRB assay, colon cell line KM12; format: cell-based; conditions: Homo sapiens, 48 h continuous drug exposure, read-out: Growth Inhibition GI50
# Procedure: as §1, §2
# [7] = system: SW-620; assay: Anticancer activity, SRB assay, colon cell line SW-620; format: cell-based; conditions: Homo sapiens; Colon SW-620; 48 h continuous drug exposure; read-out: Growth Inhibition GI50
# Procedure: as §1, §2
# [8] = system: OVCAR-4; assay: Anticancer activity, SRB assay, ovarian cell line OVCAR-4; format: cell-based, human; conditions: Homo sapiens; Ovarian OVCAR-4; 48 h continuous drug exposure; —^b means GI50 values not attained at the concentrations used; read-out: Growth Inhibition GI50
# Procedure: as §1, §2
# [9] = system: SK-OV-3; assay: Anticancer activity, SRB assay, ovarian cell line SK-OV-3; format: cell-based, human; conditions: Homo sapiens; Ovarian SK-OV-3; 48 h continuous drug exposure; —^b means GI50 values not attained at the concentrations used; read-out: Growth Inhibition GI50
# Procedure: as §1, §2
# [10] = system: CAKI-1; assay: Anticancer activity, SRB assay, renal cell line CAKI-1; format: cell-based; conditions: Homo sapiens; Renal CAKI-1; 48 h continuous drug exposure; read-out: Growth Inhibition GI50
# Procedure: as §1, §2
# [11] = system: UO-31; assay: Anticancer activity, SRB assay, renal cell line UO-31; format: cell-based, human; conditions: Homo sapiens; Renal UO-31; 48 h continuous drug exposure; —^b means GI50 values not attained at the concentrations used; read-out: Growth Inhibition GI50
# Procedure: as §1, §2
# [12] = system: MCF7; assay: Anticancer activity, SRB assay, breast cell line MCF7; format: cell-based; conditions: Homo sapiens, 48 h continuous drug exposure, read-out: Growth Inhibition GI50
# Procedure: as §1, §2
# [13] = system: MDA-MB-231/ATCC; assay: Anticancer activity, SRB assay, breast cell line MDA-MB-231/ATCC; format: cell-based; conditions: Homo sapiens; Breast MDA-MB-231/ATCC; 48 h continuous drug exposure; read-out: Growth Inhibition GI50
# Procedure: as §1, §2
# [14] = system: HS 578T; assay: Anticancer activity, SRB assay, breast cell line HS 578T; format: cell-based, human; conditions: Homo sapiens; Breast HS 578T; 48 h continuous drug exposure; —^b means GI50 values not attained at the concentrations used; read-out: Growth Inhibition GI50
# Procedure: as §1, §2
# [15] = system: SK-MEL-2; assay: Anticancer activity, SRB assay, melanoma cell line SK-MEL-2; format: cell-based, human; conditions: Homo sapiens; Melanoma SK-MEL-2; 48 h continuous drug exposure; —^b means GI50 values not attained at the concentrations used; read-out: Growth Inhibition GI50
# Procedure: as §1, §2
# [16] = system: SK-MEL-28; assay: Anticancer activity, SRB assay, melanoma cell line SK-MEL-28; format: cell-based, human; conditions: Homo sapiens; Melanoma SK-MEL-28; 48 h continuous drug exposure; —^b means GI50 values not attained at the concentrations used; read-out: Growth Inhibition GI50
# Procedure: as §1, §2
# [17] = system: SK-MEL-5; assay: Anticancer activity, SRB assay, melanoma cell line SK-MEL-5; format: cell-based; conditions: Homo sapiens; Melanoma SK-MEL-5; 48 h continuous drug exposure; read-out: Growth Inhibition GI50
# Procedure: as §1, §2
# [18] = system: UACC-257; assay: Anticancer activity, SRB assay, melanoma cell line UACC-257; format: cell-based; conditions: Homo sapiens; Melanoma UACC-257; 48 h continuous drug exposure; read-out: Growth Inhibition GI50
# Procedure: as §1, §2
# [19] = system: six leukemia cancer cell lines (CCRF-CEM, HL-60, K-562, MOLT-4, SR and RPMI-8226); assay: Anticancer activity, SRB assay, leukemia panel; format: cell-based, human
# Procedure: as §1, §2
# [20] = system: seven colon cancer cell line (COLO 205, HCC-2998, HCT-116, HCT-15, HT29, KM12 and SW-620); assay: Anticancer activity, SRB assay, colon panel; format: cell-based, human
# Procedure: as §1, §2
# [21] = system: six CNS cancer cell line (SF-268, SF-295, SF-539, SNB-19, SNB-75 and U251); assay: Anticancer activity, SRB assay, CNS panel; format: cell-based, human
# Procedure: as §1, §2
# [22] = system: seven ovarian cancer cell lines (IGROV1, OVCAR-3, OVCAR-4, OVCAR-5, OVCAR-8, NCI/ADR-RES and SK-OV-3); assay: Anticancer activity, SRB assay, ovarian panel; format: cell-based, human
# Procedure: as §1, §2
# [23] = system: eight renal cancer cell line (786-0, A498, ACHN, CAKI-1, SN12C, TK-10, UO-31 and RXF 393); assay: Anticancer activity, SRB assay, renal panel; format: cell-based, human; parameters: mean graph midpoint values (MG_MID) of Log10LC50 / mean graph midpoint values (MG_MID) of log10 TGI (Log10TGI50): unit not given here
# Procedure: as §1, §2
# [24] = system: sixty human cancer cell lines derived from nine cancer types; assay: Anticancer activity against sixty human cancer cell lines; format: cell-based
# Procedure: as §1, §2
compound,measurement,setting,value
"Cc1cc(C#Cc2ccccc2)ccc1-n1c(/C=C/c2ccc(O)cc2)nc2ccccc2c1=O [Compound 4b, (E)-2-(4-Hydroxystyryl)-3-(2-methyl-4-(phenylethynyl)phenyl)quinazolin-4(3H)-one]",GI50,[1],1.66 µM
same,GI50,[2],2.5 µM
same,GI50,[3],3.99 µM
same,GI50,[4],2.35 µM
same,GI50,[5],2.66 µM
same,GI50,[6],3.24 µM
same,GI50,[7],4.08 µM
same,GI50,[8],3.17 µM
same,GI50,[9],9.91 µM
same,GI50,[10],3.3 µM
same,GI50,[11],2.06 µM
same,GI50,[12],2.72 µM
same,GI50,[13],3.89 µM
same,GI50,[14],2.48 µM
same,GI50,[15],1.93 µM
same,GI50,[16],4.54 µM
same,GI50,[17],1.77 µM
same,GI50,[18],4.18 µM
same,GI50,"[19]; Homo sapiens, six leukemia cancer cell lines, exposure period of at least 48 h, read-out: GI50 (range over the panel)",1.66 to 3.26 µM
same,mean graph midpoint values (MG_MID) of log10 TGI (Log10TGI50),"[19]; Leukemia, log value of concentration of the compound resulting in total inhibition of net cell growth",−4.49
same,mean graph midpoint values (MG_MID) of Log10LC50,"[19]; Leukemia, log value of the concentration of compounds leading to 50% net cell death",>−4.00
same,mean graph midpoint values (MG_MID) of Log10GI50,"[19]; Leukemia, log values of concentration in mol/L causing 50% inhibition of net cell growth",−5.64 mol/L
same,mean graph midpoint values (MG_MID) of log10 TGI (Log10TGI50),"[20]; Colon, log value of concentration of the compound resulting in total inhibition of net cell growth",−4.83
same,mean graph midpoint values (MG_MID) of Log10LC50,"[20]; Colon, log value of the concentration of compounds leading to 50% net cell death",−4.15
same,mean graph midpoint values (MG_MID) of Log10GI50,"[20]; Colon, log values of concentration in mol/L causing 50% inhibition of net cell growth",−5.55 mol/L
same,GI50,"[20]; Homo sapiens, seven colon cancer cell line, exposure period of at least 48 h, read-out: GI50 (range over the panel)",1.99 to 4.08 µM
same,mean graph midpoint values (MG_MID) of log10 TGI (Log10TGI50),"[21]; CNS, log value of concentration of the compound resulting in total inhibition of net cell growth",−4.21
same,mean graph midpoint values (MG_MID) of Log10LC50,"[21]; CNS, log value of the concentration of compounds leading to 50% net cell death",>−4.00
same,mean graph midpoint values (MG_MID) of Log10GI50,"[21]; CNS, log values of concentration in mol/L causing 50% inhibition of net cell growth",−5.35 mol/L
same,GI50,"[21]; Homo sapiens, six CNS cancer cell line, exposure period of at least 48 h, read-out: GI50 (range over the panel)",2.85 to 6.91 µM
same,GI50,"[22]; Homo sapiens, seven ovarian cancer cell lines, exposure period of at least 48 h, read-out: GI50 (range over the panel)",3.09 to 20.6 µM
same,mean graph midpoint values (MG_MID) of log10 TGI (Log10TGI50),"[22]; Ovarian, log value of concentration of the compound resulting in total inhibition of net cell growth",−4.23
same,mean graph midpoint values (MG_MID) of Log10LC50,"[22]; Ovarian, log value of the concentration of compounds leading to 50% net cell death",>−4.00
same,mean graph midpoint values (MG_MID) of Log10GI50,"[22]; Ovarian, log values of concentration in mol/L causing 50% inhibition of net cell growth",−5.33 mol/L
same,GI50,"[23]; Homo sapiens, eight renal cancer cell line, exposure period of at least 48 h, read-out: in vitro anticancer activity (range over the panel)",1.56 to 3.77 µM
same,mean graph midpoint values (MG_MID) of log10 TGI (Log10TGI50),"[23]; Renal, log value of concentration of the compound resulting in total inhibition of net cell growth",−4.65
same,mean graph midpoint values (MG_MID) of Log10LC50,"[23]; Renal, log value of the concentration of compounds leading to 50% net cell death",>−4.00
same,mean graph midpoint values (MG_MID) of Log10GI50,"[23]; Renal, log values of concentration in mol/L causing 50% inhibition of net cell growth",−5.52 mol/L
same,in vitro anticancer activity (in words),[24],exhibiting an in vitro anticancer activity
